ChEMBL document CHEMBL1140323, “Biaryl ureas as potent and orally efficacious melanin concentrating hormone receptor 1 antagonists for the treatment of obesity” (J Med Chem, 2005)

Tests used:
[1] = biological target: T1, Melanin-concentrating hormone receptor 1 (Homo sapiens, UniProt Q99705); experiment: Inhibition of calcium influx into cells expressing hMCH-R1 in FLIPR assay; assay type: functional
[2] = Area under curve(0-6 h) for the compound administered orally at 10 mg/kg in rat; assay type: ADME, organism-based; parameters: time < 6 hr, dose 10 mg/kg, route oral; details: in vivo, po
[3] = biological target: T1, Melanin-concentrating hormone receptor 1; experiment: Inhibition of human melanin concentrating hormone receptor 1
[4] = biological target: Sodium-dependent serotonin transporter (Rattus norvegicus, UniProt P31652); experiment: Inhibition of 5-hydroxytryptamine reuptake by serotonin transporter
Mus musculus [5] = experiment: Oral administration (30 mg/kg) required to reduced food intake relative to control at 6 hr post dose; assay type: functional
Mus musculus [6] = experiment: Oral administration (30 mg/kg) required to reduced food intake relative to control at 4 hr post dose; assay type: functional
Rattus norvegicus [7] = experiment: Ability (10 mg/kg) required to suppression the body weight gain relative to control; assay type: functional
Rattus norvegicus [8] = experiment: Ability (3 mg/kg) required to suppression the body weight gain relative to control; assay type: functional
Rattus norvegicus [9] = experiment: Ability (3 mg/kg) required to produce a dose dependent decrease in food intake; assay type: functional
Rattus norvegicus [10] = experiment: Ability (10 mg/kg) required to produce a dose dependent decrease in food intake; assay type: functional
Mus musculus [11] = experiment: Oral administration (30 mg/kg) required to reduced food intake relative to control at 24 hr post dose; assay type: functional

T1 sequence (Q99705 whole entry): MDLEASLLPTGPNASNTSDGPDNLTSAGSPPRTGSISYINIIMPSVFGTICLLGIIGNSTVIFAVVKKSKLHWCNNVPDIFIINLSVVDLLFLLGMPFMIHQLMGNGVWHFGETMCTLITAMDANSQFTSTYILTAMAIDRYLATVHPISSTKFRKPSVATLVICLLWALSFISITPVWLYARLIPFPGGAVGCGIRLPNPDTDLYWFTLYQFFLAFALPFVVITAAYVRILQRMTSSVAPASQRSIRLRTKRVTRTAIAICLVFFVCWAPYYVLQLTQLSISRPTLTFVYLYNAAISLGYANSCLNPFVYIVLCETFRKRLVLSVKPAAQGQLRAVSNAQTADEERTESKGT
Sequence of Sodium-dependent serotonin transporter (P31652 whole entry): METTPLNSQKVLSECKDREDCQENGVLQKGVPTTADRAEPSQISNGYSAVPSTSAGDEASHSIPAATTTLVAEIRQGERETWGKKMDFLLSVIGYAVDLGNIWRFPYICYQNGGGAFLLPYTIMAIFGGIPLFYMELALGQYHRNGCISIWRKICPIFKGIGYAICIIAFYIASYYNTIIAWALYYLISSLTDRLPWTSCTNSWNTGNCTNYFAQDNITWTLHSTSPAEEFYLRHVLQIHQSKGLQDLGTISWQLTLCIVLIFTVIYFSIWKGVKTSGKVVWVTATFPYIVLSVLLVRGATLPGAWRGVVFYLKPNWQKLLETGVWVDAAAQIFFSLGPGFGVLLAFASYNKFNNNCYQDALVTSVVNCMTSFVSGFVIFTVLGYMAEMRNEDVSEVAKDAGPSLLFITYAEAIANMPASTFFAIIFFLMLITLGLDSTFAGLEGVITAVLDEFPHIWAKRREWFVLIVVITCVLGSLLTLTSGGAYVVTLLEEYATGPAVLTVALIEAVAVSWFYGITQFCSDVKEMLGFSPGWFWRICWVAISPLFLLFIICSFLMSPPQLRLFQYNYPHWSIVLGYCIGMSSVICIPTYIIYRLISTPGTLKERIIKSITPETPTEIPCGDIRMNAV

SMILES	Kb [1] [nM]	AUC(0-t) at 6 h [2] [ng·h/mL]	Ki [3] [nM]	other results
N#Cc1cccc(-c2ccc(N(CCN3CC[C@@H](O)C3)C(=O)Nc3ccc(F)c(C(F)(F)F)c3)cc2)c1	8	2790	1.8	
CN(C)CCN(C(=O)Nc1cc(Cl)cc(Cl)c1)c1ccc(-c2cccc(C#N)c2)cc1			19	
CCS(=O)(=O)N1CCC(N(C(=O)Nc2ccc(F)c(C(F)(F)F)c2)c2ccc(-c3cccc(C#N)c3)cc2)CC1			166	
N#Cc1cccc(-c2ccc(N(CCN3CCCC3)C(=O)Nc3ccc(C(F)(F)F)c(F)c3)cc2)c1		967		
N#Cc1cccc(-c2ccc(N(CCN3CC[C@@H](O)C3)C(=O)Nc3cc(Cl)cc(Cl)c3)cc2)c1		1850	11	
N#Cc1cccc(-c2ccc(N(CCN3CC[C@H](O)C3)C(=O)Nc3ccc(C(F)(F)F)c(F)c3)cc2)c1		1450	7.3	
CC(C)C(=O)N1CCC(N(C(=O)Nc2ccc(F)c(C(F)(F)F)c2)c2ccc(-c3cccc(C#N)c3)cc2)CC1			374	
CN1CCN(CCN(C(=O)Nc2ccc(C(F)(F)F)c(F)c2)c2ccc(-c3cccc(C#N)c3)cc2)CC1		542	8.2	Ki [4]: > 1000 nM
N#Cc1cccc(-c2ccc(N(CCN3CC[C@@H](O)C3)C(=O)Nc3ccc(F)c(Cl)c3)cc2)c1		1080	7.1	
N#Cc1cccc(-c2ccc(N(CCN3CC[C@@H](O)C3)C(=O)Nc3ccc(C(F)(F)F)c(F)c3)cc2)c1	2	5470	8.9	Food intake (Mus musculus [5]): 17%; Food intake (Mus musculus [6]): 16%; Body weight gain (Rattus norvegicus [7]): 2.2 g; Body weight gain (Rattus norvegicus [8]): 1.2 g; Food intake (Rattus norvegicus [9]): 16.9%; Food intake (Rattus norvegicus [10]): 13.2%; Food intake (Mus musculus [11]): 14%
CN(C)CCN(C(=O)Nc1ccc(C(F)(F)F)c(F)c1)c1ccc(-c2cccc(C#N)c2)cc1		4800	6	
CN(C)CCN(C(=O)Nc1ccc(F)c(Cl)c1)c1ccc(-c2cccc(C#N)c2)cc1	3.1	1950	3.3	Ki [4]: 1080 nM
CNCCN(C(=O)Nc1ccc(F)c(Cl)c1)c1ccc(-c2cccc(C#N)c2)cc1	6.2		6	
